# Measurements reported in patent EP1170012A1, “CEREBROVASCULAR REGENERATION/RECONSTRUCTION PROMOTERS AND NERVE TISSUE SECONDARY DEGENERATION INHIBITORS COMPRISING GINSENOSIDE RB 1?” (priority 1999, dated 2000).
# Like-named read-outs stand apart in the source and are kept apart here. Marks after values point to notes of the source that are not given here.
# Assays:
# [1] = tested on: SH-SP rats; format: in vivo; conditions: for learning disability in the water maze tests: also 1st day at the 4th week
# Protocol: (§1) First, we examined the actions of intravenous infusion of ginsenoside Rb1. For this purpose, for example, male SH-SP rats, weighing 250 - 300 g at the age of 12-13 weeks were used. The animals were bred in an air-conditioned room with a 12:12 hour light-dark cycle, and water and feeds were supplied ad libitum. The cortical branch of the left middle cerebral artery (MCA) was coagulated and cut under inhalation anesthesia.
# After MCA permanent occlusion, according to the method of the inventors of the present invention (Sakanaka and Tanaka) (Igase, K. et al., J. Cereb. Blood Flow Metab., 19, 298-306, 1999; Zhang B. et al., J. Stroke Cerebrovasc. Dis., 7, 1-9, 1998), water maze tests were performed for 4 days at the 2nd week and the 4th week, respectively, and the place navigation abilities of SH-SP rats were determined.
# (§2) Male SH-SP rats, at the age of 12-13 weeks, (stroke-prone spontaneously hypertensive rat: weighing 250 - 300 g), were used. Animals were housed in an air-conditioned room furnished with a 12:12 hour light-dark cycle, and water and feeds were supplied ad libitum. The mean blood pressure of the animals was 203±6.9 mmHg. The following experiments were conducted in accordance with the Guide for Animal Experimentation at Ehime University School of Medicine. The cortical branch of the left middle cerebral artery (MCA) of SH-SP rats were coagulated and cut, while their rectal temperature was maintained at 37±0.2°C under inhalation anesthesia.
# Immediately after MCA permanent occlusion, […] of physiological saline containing ginsenoside Rb1 at a concentration of 1µg/µl or 0.1µg/µl (60µg or 6µg as ginsenoside Rb1) was injected once into the left femoral vein. Then a catheter connected to the Alza osmotic minipump implanted subcutaneously in the back of each animal was inserted into the same vein from the point of the single injection of ginsenoside Rb1. Physiological saline containing ginsenoside Rb1 was filled in advance in the said osmotic minipump, and ginsenoside Rb1 in a dose of 60µg/day or 6µg/day was continuously infused into the blood stream through the catheter placed in the left femoral vein for 28 days. Flow rate of the ginsenoside Rb1-containing solution was 0.25µl/hour. Control animals with MCA permanent occlusion (ischemic control animals) and sham-operated animals received the same amount of physiological saline.
# After the MCA permanent occlusion according to the method of the inventors of the present invention (Sakanaka and Tanaka) (Igase, K. et al., J. Cereb. Blood Flow Metab., 19, 298-306, 1999; Zhang B. et al., J. Stroke Cerebrovasc. Dis., 7, 1-9, 1998), water maze tests were performed for 4 days at the 2nd week and the 4th week, respectively, and place navigation abilities of the SH-SP rats were determined.
# [2] = tested on: SH-SP rats; assay: Ratio of cerebrocortical infarction after MCA permanent occlusion, intravenous infusion; format: in vivo
# Protocol: as §1
# After the water maze tests at the 4th week, the SH-SP rats were anesthetized with chloral hydrate, and they were perfused and fixed transcardially with 0.1 mole phosphate buffer containing 4% paraformaldehyde. The brains were dissected out and cerebrocortical infarcted areas were photographed. Areas of the left cerebral hemispheres and the left cerebrocortical infarct lesions were measured on the photographs by using an image analysis device. The left cerebrocortical infarcted areas were divided by the left cerebral hemispheric areas to calculate ratios of the cerebrocortical infarction (%).
# as §2, with “anesthesia. […]” for “anesthesia.”
# After termination of the water maze tests at the 4th week, the SH-SP rats were anesthetized with chloral hydrate, and they were perfused and fixed transcardially with 0.1 mole phosphate buffer containing 4% paraformaldehyde. […] Areas of the left cerebral hemispheres and the left cerebrocortical infarct lesions were measured on the photographs by using an image analysis device. […]
# [3] = tested on: SH-SP rats; assay: Ratio of cerebrovascular area in the non-infarcted ischemic penumbra of the parietal lobe; format: in vivo; conditions: for ischemic side (%), ratio of the cerebrovascular area: non-infarcted ischemic penumbra; for ischemic side (%), ratio of the cerebrovascular area / intact side (%), ratio of the cerebrovascular area: mean ± SE, N = 5; for intact side (%), ratio of the cerebrovascular area: per 1.27 mm^2
# Text: Next, we prepared paraffin sections, 5 µm thickness, obtained from brain samples at the level about 2.8 mm posterior to the bregma. Then, we measured the cerebrovascular area per 1.27 mm^2 of the non-infarcted ischemic penumbra in the parietal lobe. This was done for each of the cerebral hemisphere of a group to which ginsenoside Rb1 had been administered intravenously (i.e. the brain tissues had been rescued by administration of ginsenoside Rb1) (Fig. 5). Four sheets of differential interference contrast micrograph were used for measurement (Fig. 6), and the ratio of the cerebrovascular area was calculated (Table 1).
# The isolated brain was embedded in paraffin, and paraffin sections, 5µm thick, at the level approximately 2.8 mm posterior to bregma including the cerebrocortical infarct lesion were prepared. Then, we measured the cerebrovascular area per 1.27 mm^2 of the ischemic penumbra rescued by intravenous administration of ginsenoside Rb1. This was done for each of the cerebral hemispheres of the groups to which ginsenoside Rb1 had been administered intravenously (i.e. the brain tissues had been rescued by administering ginsenoside Rb1) (Fig. 5). Four sheets of differential interference contrast micrograph were used for measurement (Fig. 6), and the ratio of the cerebrovascular area was calculated (Table 1). The ratio of cerebrovascular area was also measured in the control hemisphere (intact side).
# Fig. 5 is a drawing showing the region for measurement of blood vessel area in the non-infarcted ischemic penumbra of the parietal lobe in a 5µm thick section of the brain. In Fig. 5, the part enclosed with a rectangle is the region for measurement of blood vessel area: cerebrocortical layers II - IV of the parietal lobe; the part painted with black in Fig. 5 is the infarct lesion when ginsenoside Rb1 was administered; and the part shown in gray in Fig. 5 is the infarcted lesion when physiological saline was administered.
# Data are represented by mean ± SE. Statistical analyses are conducted by ANOVA + Fisher's PLSD. N = 5.
# [4] = tested on: SH-SP rats; assay: Secondary degeneration of the thalamus: thalamic area ratio and nerve cell count in the VP thalamic nucleus; format: in vivo; conditions: mean ± SE; for ratio of area (%), left thalamic area to right thalamic area: ischemic side/intact side × 100, p < 0.05; for count of nerve cells: per 0.099 mm^2 of the ventral posterior nucleus of the thalamus, p < 0.01
# Protocol: Further, paraffin sections prepared from brain samples at the level 3.6 mm posterior to bregma were subjected to Nissl staining, and the ratio of the left thalamic area to the right thalamic area (ischemic side/intact side × 100) at the same level was measured. […] In addition, we have investigated the histological patterns of the ventral posterior nucleus of the thalamus (VP thalamic nucleus) which has reciprocal synaptic connections (fiber connections) with the ischemic core of the cerebral cortex. […] […] Data are represented as mean ± SE. Statistical analyses were conducted by Mann-Whitney U-test. In Table 2, *: p < 0.05, **: p < 0.01.
# [5] = tested on: rats; conditions: rat, in vivo
# Text: It has also been reported that no effects of intracerebroventricular administration of ginsenoside Rb1 on brain temperature, cerebral blood flow and blood pressure are observed (Lim J.-H. et al. Neurosci. Res., 28, 191-200, 1997; Zhang B. et al., J. Stroke Cerebrovasc. Dis., 7, 1-9, 1998).
# [6] = tested on: Wistar rats
# Protocol: We used Wistar rats, (weighing about 300 g), which were loaded with 20 g of compression to the lower thoracic cord for 20 minutes, as an animal model for spinal cord injuries. The rats were anesthetized by inhalation of halothane in a mixture of nitrous oxide and oxygen and were loaded with 20 g of compression to the lower thoracic cord for 20 minutes. More than 30 minutes later, ginsenoside Rb1 dissolved in physiological saline was infused once into the left femoral vein (12 µg or 60 µg). Subsequently continuous intravenous administration of ginsenoside Rb1 was performed for 7 days by using an Alza osmotic minipump (12µg/day or 60µg/day). Control animals' and sham-operated animals were administered with the same amount of physiological saline (vehicle). The open field locomotor scores [Basso, Bettie and Bresnakan (BBB) scores] were measured before the loading of spinal cord injury, on the day of spinal cord injury, and from the 1st day to the 7th day after spinal cord injury in order to determine an index of motor functions (Basso D.M. et al., J. Neurotrauma, 13, 343-359, 1996). […] The rats were anesthetized with inhalation of halothane in a mixture of nitrous oxide and oxygen and were loaded with 20 g of compression to the lower thoracic cord for 20 minutes. More than 30 minutes later, ginsenoside Rb1 dissolved in physiological saline was injected once into the left femoral vein (12µg or 60µg), thereafter continuous intravenous administration of ginsenoside Rb1 was performed for 7 days by using an Alza osmotic minipump (12µg/day or 60µg/day). Control animals and sham-operated animals were administered with the same amount of physiological saline (vehicle). The open field locomotor scores [Basso, Bettie and Bresnakan (BBB) scores] were measured before loading spinal cord injury, on the day of spinal cord injury and from the 1st day to the 7th day after the spinal cord injury for use as an index of motor functions (Basso D.M. et al., J. Neurotrauma, 13, 343-359, 1996).
# [7] = tested on: gerbils; conditions: cited from earlier work
# [8] = tested on: SH-SP) rats; conditions: cited from earlier work
# [9] = tested on: cultured nerve cells; conditions: 1 - 100 fg/ml in culture medium; cited from earlier work
# [10] = tested on: apoptosis-like nerve cell death; conditions: 1 fg/ml to 100 fg/ml; cited from earlier work
# [11] = tested on: Bcl-XL; conditions: 1 fg/ml to 100 fg/ml; cited from earlier work
# [12] = tested on: lipid peroxides; conditions: cited from earlier work
# [13] = tested on: rats; conditions: rat, in vivo; cited from earlier work
# [14] = tested on: normal cultured nerve cells or neurons; conditions: cited from earlier work
# [15] = tested on: glutamate-mediated neurotoxicity; conditions: cited from earlier work
# [16] = in vivo, po; cited from earlier work
# [17] = in vivo; cited from earlier work
# [18] = 6µg/day intravenous for 28 days after MCA permanent occlusion
# [19] = 60µg/day intravenous for 28 days after MCA permanent occlusion
compound,measurement,setting,value
"CC(C)=CCC[C@](C)(O[C@@H]1O[C@H](CO[C@@H]2O[C@H](CO)[C@@H](O)[C@H](O)[C@H]2O)[C@@H](O)[C@H](O)[C@H]1O)[C@H]1CC[C@]2(C)[C@@H]1[C@H](O)C[C@@H]1[C@@]3(C)CC[C@H](O[C@@H]4O[C@H](CO)[C@@H](O)[C@H](O)[C@H]4O[C@@H]4O[C@H](CO)[C@@H](O)[C@H](O)[C@H]4O)C(C)(C)[C@@H]3CC[C@]12C [ginsenoside Rb1, Ginsenoside Rb1]",place navigation disability after MCA permanent occlusion,"[1]; 6µg/day or 60µg/day intravenous, compared with physiological saline group",significantly improved
same,learning disability in the water maze tests,"[1]; high dose (60µg/day), 4th day at the 2nd week, 3rd and 4th days at the 4th week",significantly ameliorated
same,learning disability in the water maze tests,"[1]; low dose (6µg/day), 3rd and 4th day at the 2nd and 4th week",significantly ameliorated
same,swimming speed of SH-SP rats,"[1]; rat, in vivo",No significant differences
same,ratio of cerebrocortical infarction,"[2]; 6µg/day or 60µg/day intravenous for 28 days, compared with physiological saline group",significantly reduced
same,mean value of the ratio of cerebrocortical infarction compared with that of the physiological saline group,"[2]; groups intravenously administered, about 50% or less",≤ 50%
same,actual volume of infarction relative to physiological saline group,"[2]; intravenous administration, inferred from the area ratio",about 1/4
same,"ratios of the cerebrovascular areas, control side versus ischemic side","[3]; 6µg/day and 60 µg/day intravenous, 28 days after MCA permanent occlusion",no significant difference
same,"ischemic side (%), ratio of the cerebrovascular area",[3]; [18],8.0 ± 0.58%
same,"intact side (%), ratio of the cerebrovascular area",[3]; [18],7.0 ± 0.64%
same,"ischemic side (%), ratio of the cerebrovascular area",[3]; [19],9.0 ± 0.52%
same,"intact side (%), ratio of the cerebrovascular area",[3]; [19],8.3 ± 0.92%
same,"ratio of area (%), left thalamic area to right thalamic area",[4]; 6µg/day intravenous,95.9 ± 3.3* %
same,count of nerve cells,[4]; 6µg/day intravenous,30.6 ± 2.9**
same,"ratio of area (%), left thalamic area to right thalamic area",[4]; 60µg/day intravenous,95.3 ± 2.4* %
same,count of nerve cells,[4]; 60µg/day intravenous,31.5 ± 3.6**
same,adverse effects,[5],No adverse effects were detected
same,motor ability (BBB scores),"[6]; 12µg/day or 60µg/day intravenous, 7th day after spinal cord injuries, dose-dependent",significantly ameliorated
same,paraplegia of both hindlimbs,"[6]; 60 µg/day intravenous after 20 g compression for 20 minutes, after 2 days",significantly ameliorated
same,wound healing of the dorsal skin incision,"[6]; rat, in vivo",no such adverse effects were noted
same,delayed neuronal death and learning disability,[7]; intracerebroventricular infusion starting immediately after 3 or 3.5 minutes carotid occlusion,suppresses the delayed neuronal death and learning disability
same,hippocampal CA1 pyramidal neurons rescued,[7]; intraperitoneal 10 mg/kg/day or 20 mg/kg/day before ischemic loading,about 30%
same,delayed neuronal death and learning disability,"[7]; intraperitoneal 10 or 20 mg/kg/day once a day for one week in advance, 5 minutes carotid occlusion",significantly prevent
same,effect of administration after the ischemic insult,"[7]; intraperitoneal, after the ischemic insult",no effect
same,effect on cerebral infarction,[8]; continuous intracerebroventricular infusion 0.6µg/day after MCA occlusion,significant suppressive effect
same,effect on cerebral infarction,[8]; continuous intracerebroventricular infusion 6µg/day or 0.06µg/day after MCA permanent occlusion,no therapeutic effect
same,neuronal necrosis caused by ferrous sulfate,[9],reduces neuronal necrosis
same,apoptosis-like nerve cell death,[10],suppresses apoptosis-like nerve cell death
same,expression of Bcl-XL,[11],increasing the expression
same,formation of lipid peroxides,[12]; 100 fg/ml,slightly suppressive action
same,formation of lipid peroxides,[12]; lower concentration range than 100 fg/ml,no such effect was observed
same,"brain temperature, cerebral blood flow and blood pressure",[13],no effects
same,normal metabolic activity of cultured nerve cells,[14],no effect on normal metabolic activity
same,SNP-induced injuries,[14]; low extracellular concentrations (1 - 100 fg/ml),protects only nerve cells against SNP-induced injuries
same,neurotoxicity,[15],increased neurotoxicity
same,glutamate-mediated neurotoxicity,[15]; high concentrations (0.11-11 µg/ml),reduce glutamate-mediated neurotoxicity
same,detection in blood,[16],can not be detected in blood
same,transfer to the central nervous system,[17],transferred rapidly
